The record followed here is patent US12116356B2, “N-heterocyclic five-membered ring-containing capsid protein assembly inhibitor, pharmaceutical composition thereof, and use thereof” (CHIA TAI TIANQING PHARMACEUTICAL GROUP CO., LTD., priority 2018, dated 2024).

One data set concerns HBV DNA in HepAD38 cells. Description: In vitro cell HBV DNA inhibitory activity (anti-HBV activity) in HepAD38 cells. The following applies: Hepatitis B virus, 144 h; anti-HBV activity in HepAD38 cells, 6 days treatment, intracellular capsid HBV DNA by qPCR; read-out: EC50. Type of data set: cell-based. The method, then: (§1) A bottle of HepG2.2.15 or HepAD38 cells in good exponential growth state was taken, washed once by adding 5 mL PBS, and then thereto was added 3 mL trypsin. After digesting at room temperature for 5 min, 2 mL trypsin was discarded, and then the sample was placed in a cell culture incubator and digested for 10 min. The cells were taken out from time to time and observed under a microscope (whether the cells were individually round and there was no adhesion between the cells). 10 mL complete medium was added to terminate the digestion. After pipetting into a single cell suspension, 10 μL of the cell suspension was taken out for cell counting with a cell counter, and then diluted with a complete medium and adjusted to a cell density of 1*10^5 cells/mL. Then the cell suspension was seeded at 1 mL/well in a 24-well plate with a multi-channel pipette (the 24-well plate was coated with 50 μg/mL Collagen I solution in advance), and cultured in a constant temperature CO2 incubator for 48 h.
(§2) Different compounds dissolved in DMSO were subjected to two-fold gradient dilution (10 concentrations in total) with complete medium. The compound was added, and fresh medium containing the compound was used to replace the spent medium every 72 hours. The cells were treated with the compound for 6 days. After the supernatant was siphoned off, 300 μL lysate (10 mM Tris-HCl, 1 mM EDTA, and 1% NP-40) was added to each well. After lysing at room temperature for 10 min, DNA was extracted, and HBV DNA in the intracellular viral capsid was measured by real-time fluorescence quantitative PCR. The inhibition rate was calculated based on the Ct value, and the EC50 value was calculated by the four-parameter method.

For data set [1], the system named is HBV DNA in HepG2.2.15 cells. Description: In vitro cell HBV DNA inhibitory activity (anti-HBV activity) in HepG2.2.15 cells. The following applies: Hepatitis B virus, 144 h; anti-HBV activity in HepG2.2.15 cells, 6 days treatment, intracellular capsid HBV DNA by qPCR; read-out: EC50. Type of data set: cell-based. The method, then:
as §1, §2
On the technique in general: Real-time PCR tracks product formation cycle by cycle.

A short description of data set [2]: In vitro cytotoxicity (CCK-8) in HepAD38 cells. Type of data set: cell-based. Particulars: human. The method, then:
(§3) A bottle of HepG2.2.15 or HepAD38 cells in good exponential growth state was taken, washed once by adding 5 mL PBS, and then thereto was added 3 mL trypsin. The sample was digested in a cell culture incubator, and taken out from time to time and observed under a microscope. When the cells just fell off, 1 mL trypsin was discarded. The residual liquid was placed in a cell culture incubator at 37° C. and digested for 8-15 min. The cells were taken out and observed under a microscope (whether the cells were individually round and there was no adhesion between the cells). 5 mL MEM medium was added for cell resuspension. The cells were then subjected to cell counting with a cell counter, diluted with a complete medium, and adjusted to a cell density of 2*10^5 cells/mL. Then the cells were seeded at 100 μL/well in a 96-well plate with a multi-channel pipette (the 96-well plate was coated with 50 μg/mL Collagen I solution in advance), and cultured in a constant temperature CO2 incubator for 24 h. The cells were treated by drug administration, and fresh medium containing the compound was used to replace the spent medium every 3 days. To control wells was added a drug-free medium containing 0.5% DMSO, and a control well containing a common medium was set up. 6 days after the administration, CCK-8 was added at 10 μL/well. After 1 to 2 hours, the absorbance was detected with microplate reader at 450 nm, and the inhibition rate and the CC50 were calculated.

A short description of data set [3]: In vitro cytotoxicity (CCK-8) in HepG2.2.15 cells. Format: cell-based. The following applies: human. The method, then:
as §3

Data set [4] can be described thus: Stability of human liver microsomes in vitro. Type of data set: in vitro ADME. The method, then: (§4) 300 μL of a final incubation system contains 30 μL of liver microsomes (protein concentration: 0.15 mg/mL), 30 μL NADPH+MgCl2, 3 μL substrate (formulated with acetonitrile), and 237 μL PBS buffer. Duplicate incubation systems of 0.3 mL each were formulated for each species. A total volume of 270 μL of a uniformly mixed solution of the substrate and the enzyme was formulated in each tube, the solution and NADPH were pre-incubated at 37° C. for 5 minutes, respectively. Then 30 μL of the mixed solution of NADPH+MgCl2 was added for reaction. 50 μL of the reaction solution was taken out at 0, 10, 30, and 60 mins, and the reaction was terminated with 300 μL of ice acetonitrile containing an internal standard.
(§5) Sample pre-treatment: To 50 μL of the incubated sample was added 300 μL of ice acetonitrile containing diazepam as an internal standard and then precipitated. After vortexing for 5 minutes, the sample was centrifugated (12000 rpm, 4° C.) for 10 minutes. 75 μL of the supernatant was pipetted into a 96-well plate, and then diluted with 75 μL ultrapure water and mixed uniformly. 0.5 μL of the resulting solution was injected and analyzed by LC-MS/MS.

Data set [5] can be described thus: Stability of rat liver microsomes in vitro. Format: in vitro ADME. As for the experimental part: as §4, §5
For orientation: Liver microsomes are vesicles of endoplasmic reticulum, rich in cytochrome P450 enzymes.

Data set [6] can be described thus: Stability of mouse liver microsomes in vitro. Format: in vitro ADME. The method, then: as §4, §5
The nature of data set [7]: Solubility in PBS buffer at pH 7.4. Format: physicochemical. The following applies: aqueous buffer, PBS buffer pH 7.4, 25° C. The method, then: […] After standing at 25° C. for 16 hours, the system was centrifugated (12000 rpm, room temperature) for 10 min. 20 μL of the supernatant was taken out, and the reaction was terminated with 400 μL of acetonitrile containing an internal standard (diazepam 20 ng/mL). 30 μL of the supernatant was pipetted, and 150 μL of 50% acetonitrile aqueous solution was added thereto for dilution and mixed uniformly. 0.5 μL of the resulting solution was injected for analysis.

Data set [8] is described as follows: In vivo pharmacokinetics (PK) study in mice. Particulars: ICR mice, po 30 mg/kg. The method, then: ICR mice, weighing 18-20 g, were randomly divided into groups of three mice each after 3 to 5 days' acclimatization, and a series of the compounds were administered intragastrically to each group at a dose of 30 mg/kg. The test animals (ICR mice) were fasted for 12 hours before the administration and fed 4 hours after the administration. They were free to access water before and after the experiment. After the intragastric administration, about 0.1 mL of blood was collected from the orbits. Within 30 minutes after anticoagulation with EDTA-K2, the plasma was separated by centrifugation at 4° C. and 4000 rpm for 10 minutes. Immediately after collecting all plasma, it was stored at −20° C. for testing. 20 μL of the plasma sample to be tested and standard curve sample were pipetted, and then thereto was added 200 μL of an acetonitrile solution containing an internal standard (diazepam 20 mg/mL). The resulting mixture was oscillated and mixed uniformly for 5 min, and then centrifugated at 12000 rpm for 10 min. 75 μL supernatant was pipetted, and 75 μL ultrapure water was added thereto for dilution, and mixed evenly. 1 μL of the resulting solution was pipetted for LC/MS/MS determination.

Values after ≈ are worked out from the molar mass of the structure shown. Where only a bound is given, the exact number is not on record here.

By EC50 is commonly meant the concentration needed to bring the measured effect to its halfway point. Usually CC50 stands for the concentration that lowers cell viability or growth by half. High values mean lower toxicity to the cells, low ones greater toxicity to the cells. By solubility is commonly meant how much of the substance goes into solution per volume. The low end stands for a poorly soluble substance, the high end for a readily soluble substance. Turning to `Cc1c(C(=O)Nc2ccc(F)c(C#N)c2)c(C)n(C)c1C(=O)C(=O)NC1(C)COC1` [Example 6, N-(3-cyano-4-fluorophenyl)-1,2,4-trimethyl-5-(2-(3-methyloxetan-3-ylamino)-2-oxoacetyl)-1H-pyrrole-3-carboxamide], the EC50 (in the data set with HBV DNA in HepAD38 cells; in data set [1]) was 10 to 50 nM each time. In addition, the CC50 at 6 days in [2] and in data set [3] was above 100000 nM in each case. Also, the “Remaining (%) at 60 min” value amounted to 79.1% in data set [4], 74.9% in data set [5] and 55% in [6]. Moreover, the concentration in solution in [7] (solubility at 16 h) came to 81.8 µM (≈ 33.7 µg/mL).

In the case of `Cc1c(C(=O)Nc2ccc(F)c(C#N)c2)c(C)n(C)c1C(=O)C(=O)NC1CCOC1` (stereo not drawn) [Example 7, N-(3-cyano-4-fluorophenyl)-1,2,4-trimethyl-5-(2-oxo-2-((tetrahydrofuran-3-yl)amino)acetyl)-1H-pyrrole-3-carboxamide], the half-maximal effective concentration (EC50) was below 10 nM in the data set with HBV DNA in HepAD38 cells and 10 to 50 nM in data set [1]. For the same compound, the CC50 at 6 days in data set [2] and in data set [3] was above 100000 nM each time. Besides, the “Remaining (%) at 60 min” value in data set [4] amounted to 83.8%; in data set [5] it was 70.5%; in data set [6], 81.6%. This compound also displayed a solubility at 16 h in [7] of 19.8 µM (≈ 8.17 µg/mL).

For `Cc1c(C(=O)Nc2ccc(F)c(C#N)c2)c(C)n(C)c1C(=O)C(=O)N[C@H](C)C(F)(F)F` [Example 11], the half-maximal effective concentration (EC50) (with HBV DNA in HepAD38 cells; in data set [1]) was below 10 nM throughout. The CC50 at 6 days in data set [2] and in data set [3] was above 100000 nM in each case. The “Remaining (%) at 60 min” value in data set [5] was found to be 56.8%; in [6], 47.7%. Moreover, the concentration in solution in [7] (solubility at 16 h) was 7.5 µM (≈ 3.29 µg/mL).

In the case of `Cc1c(C(=O)Nc2ccc(F)c(C#N)c2)c(C)n(C)c1C(=O)C(=O)NC(C)(C)C` [Example 13, 5-(2-(tert-butylamino)-2-oxoacetyl)-N-(3-cyano-4-fluorophenyl)-1,2,4-trimethyl-1H-pyrrole-3-carboxamide], the EC50 with HBV DNA in HepAD38 cells is below 10 nM. Also, in data set [8] (0.25 h, 1 h, 6 h), the “Liver AUC(0-6 h)” value came out at 5834 ng/g. Further, the “Plasma AUC(0-6 h)” value in data set [8] (blood at 0.25 h, 1 h, 6 h) was 1759 ng/mL. Moreover, the Kp in data set [8] (mouse, liver/blood, AUC(0-6 h), read-out: Liver to blood ratio) stood at 3.32.
